# Test: Safety (adverse events, NCI CTCAE v4.0), dose-escalation phase
# [1] = dose-escalation QD × 3dQW 6–20 mg
# [2] = dose-escalation QD × 5dQW 7–13 mg
# Procedure: Patients who received ≥1 dose of sapanisertib were included in the safety population. […] Adverse events (AEs) were assessed using the National Cancer Institute Common Terminology Criteria for Adverse Events, v4.0. Patients were provided with a home blood-glucose meter to monitor their fasting predose blood-glucose measurements to assess hyperglycaemia as an on-target AE and PD marker.
compound,measurement,setting,value
CC(C)n1nc(-c2ccc3oc(N)nc3c2)c2c(N)ncnc21 [Sapanisertib],On-study deaths within 30 days of last dose,both phases,7
same,"Acute kidney injury, treatment-related AE",dose-escalation QD 2–7 mg,1 (3) n (%)
same,"Anaemia, treatment-related AE",dose-escalation QD 2–7 mg,3 (10) n (%)
same,Any AE,dose-escalation QD 2–7 mg,31 (100) n (%)
same,Any AE resulting in dose modification/interruption,dose-escalation QD 2–7 mg,22 (71) n (%)
same,Any AE resulting in treatment discontinuation,dose-escalation QD 2–7 mg,11 (35) n (%)
same,Any SAE,dose-escalation QD 2–7 mg,13 (42) n (%)
same,Any grade ≥3 AE,dose-escalation QD 2–7 mg,19 (61) n (%)
same,Any treatment-related AE,dose-escalation QD 2–7 mg,31 (100) n (%)
same,Any treatment-related SAE,dose-escalation QD 2–7 mg,4 (13) n (%)
same,Any treatment-related grade ≥3 AE,dose-escalation QD 2–7 mg,14 (45) n (%)
same,"Asthenia, treatment-related AE",dose-escalation QD 2–7 mg,6 (19) n (%)
same,"Asthenia, treatment-related grade ≥3 AE",dose-escalation QD 2–7 mg,1 (3) n (%)
same,"Blood creatinine increased, treatment-related AE",dose-escalation QD 2–7 mg,7 (23) n (%)
same,"Decreased appetite, treatment-related AE",dose-escalation QD 2–7 mg,11 (35) n (%)
same,"Dehydration, treatment-related AE",dose-escalation QD 2–7 mg,3 (10) n (%)
same,"Dehydration, treatment-related grade ≥3 AE",dose-escalation QD 2–7 mg,0 (0) n (%)
same,"Diarrhoea, treatment-related AE",dose-escalation QD 2–7 mg,11 (35) n (%)
same,"Diarrhoea, treatment-related grade ≥3 AE",dose-escalation QD 2–7 mg,1 (3) n (%)
same,"Dry mouth, treatment-related AE",dose-escalation QD 2–7 mg,5 (16) n (%)
same,"Dysgeusia, treatment-related AE",dose-escalation QD 2–7 mg,8 (26) n (%)
same,"Dyspepsia, treatment-related AE",dose-escalation QD 2–7 mg,1 (3) n (%)
same,"Fatigue, treatment-related AE",dose-escalation QD 2–7 mg,8 (26) n (%)
same,"Fatigue, treatment-related grade ≥3 AE",dose-escalation QD 2–7 mg,0 (0) n (%)
same,"Headache, treatment-related AE",dose-escalation QD 2–7 mg,0 (0) n (%)
same,"Hypercholesterolemia, treatment-related AE",dose-escalation QD 2–7 mg,5 (16) n (%)
same,"Hyperglycaemia, treatment-related AE",dose-escalation QD 2–7 mg,25 (81) n (%)
same,"Hyperglycaemia, treatment-related grade ≥3 AE",dose-escalation QD 2–7 mg,6 (19) n (%)
same,"Hypophosphatemia, treatment-related AE",dose-escalation QD 2–7 mg,0 (0) n (%)
same,"Hypophosphatemia, treatment-related grade ≥3 AE",dose-escalation QD 2–7 mg,0 (0) n (%)
same,"Lymphopenia, treatment-related grade ≥3 AE",dose-escalation QD 2–7 mg,2 (6) n (%)
same,"Nausea, treatment-related AE",dose-escalation QD 2–7 mg,13 (42) n (%)
same,"Nausea, treatment-related grade ≥3 AE",dose-escalation QD 2–7 mg,0 (0) n (%)
same,On-study deaths,dose-escalation QD 2–7 mg,1 (3) n (%)
same,"Pruritus generalised, treatment-related AE",dose-escalation QD 2–7 mg,8 (26) n (%)
same,"Pruritus generalised, treatment-related grade ≥3 AE",dose-escalation QD 2–7 mg,2 (6) n (%)
same,"Pruritus, treatment-related AE",dose-escalation QD 2–7 mg,2 (6) n (%)
same,"Rash maculo-papular, treatment-related AE",dose-escalation QD 2–7 mg,3 (10) n (%)
same,"Rash maculo-papular, treatment-related grade ≥3 AE",dose-escalation QD 2–7 mg,2 (6) n (%)
same,"Rash, treatment-related AE",dose-escalation QD 2–7 mg,8 (26) n (%)
same,"Rash, treatment-related grade ≥3 AE",dose-escalation QD 2–7 mg,2 (6) n (%)
same,"Stomatitis (includes oropharyngeal pain and mucosal inflammation), treatment-related AE",dose-escalation QD 2–7 mg,11 (35) n (%)
same,"Stomatitis, treatment-related grade ≥3 AE",dose-escalation QD 2–7 mg,0 (0) n (%)
same,"Thrombocytopenia, treatment-related grade ≥3 AE",dose-escalation QD 2–7 mg,2 (6) n (%)
same,"Vomiting, treatment-related AE",dose-escalation QD 2–7 mg,8 (26) n (%)
same,"Weight decreased, treatment-related AE",dose-escalation QD 2–7 mg,1 (3) n (%)
same,"Acute kidney injury, treatment-related AE",[1],0 (0) n (%)
same,"Anaemia, treatment-related AE",[1],1 (3) n (%)
same,Any AE,[1],33 (100) n (%)
same,Any AE resulting in dose modification/interruption,[1],21 (64) n (%)
same,Any AE resulting in treatment discontinuation,[1],7 (21) n (%)
same,Any SAE,[1],17 (52) n (%)
same,Any grade ≥3 AE,[1],25 (76) n (%)
same,Any treatment-related AE,[1],32 (97) n (%)
same,Any treatment-related SAE,[1],9 (27) n (%)
same,Any treatment-related grade ≥3 AE,[1],19 (58) n (%)
same,"Asthenia, treatment-related AE",[1],10 (30) n (%)
same,"Asthenia, treatment-related grade ≥3 AE",[1],4 (12) n (%)
same,"Blood creatinine increased, treatment-related AE",[1],2 (6) n (%)
same,"Decreased appetite, treatment-related AE",[1],17 (52) n (%)
same,"Dehydration, treatment-related AE",[1],1 (3) n (%)
same,"Dehydration, treatment-related grade ≥3 AE",[1],1 (3) n (%)
same,"Diarrhoea, treatment-related AE",[1],13 (39) n (%)
same,"Diarrhoea, treatment-related grade ≥3 AE",[1],0 (0) n (%)
same,"Dry mouth, treatment-related AE",[1],2 (6) n (%)
same,"Dysgeusia, treatment-related AE",[1],4 (12) n (%)
same,"Dyspepsia, treatment-related AE",[1],1 (3) n (%)
same,"Fatigue, treatment-related AE",[1],12 (36) n (%)
same,"Fatigue, treatment-related grade ≥3 AE",[1],0 (0) n (%)
same,"Headache, treatment-related AE",[1],3 (9) n (%)
same,"Hypercholesterolemia, treatment-related AE",[1],4 (12) n (%)
same,"Hyperglycaemia, treatment-related AE",[1],22 (67) n (%)
same,"Hyperglycaemia, treatment-related grade ≥3 AE",[1],7 (21) n (%)
same,"Hypophosphatemia, treatment-related AE",[1],5 (15) n (%)
same,"Hypophosphatemia, treatment-related grade ≥3 AE",[1],3 (9) n (%)
same,"Lymphopenia, treatment-related grade ≥3 AE",[1],2 (6) n (%)
same,"Nausea, treatment-related AE",[1],23 (70) n (%)
same,"Nausea, treatment-related grade ≥3 AE",[1],2 (6) n (%)
same,On-study deaths,[1],2 (6) n (%)
same,"Pruritus generalised, treatment-related AE",[1],6 (18) n (%)
same,"Pruritus generalised, treatment-related grade ≥3 AE",[1],1 (3) n (%)
same,"Pruritus, treatment-related AE",[1],1 (3) n (%)
same,"Rash maculo-papular, treatment-related AE",[1],1 (3) n (%)
same,"Rash maculo-papular, treatment-related grade ≥3 AE",[1],0 (0) n (%)
same,"Rash, treatment-related AE",[1],7 (21) n (%)
same,"Rash, treatment-related grade ≥3 AE",[1],0 (0) n (%)
same,"Stomatitis (includes oropharyngeal pain and mucosal inflammation), treatment-related AE",[1],23 (70) n (%)
same,"Stomatitis, treatment-related grade ≥3 AE",[1],5 (15) n (%)
same,"Thrombocytopenia, treatment-related grade ≥3 AE",[1],0 (0) n (%)
same,"Vomiting, treatment-related AE",[1],18 (55) n (%)
same,"Weight decreased, treatment-related AE",[1],2 (6) n (%)
same,"Acute kidney injury, treatment-related AE",[2],0 (0) n (%)
same,"Anaemia, treatment-related AE",[2],0 (0) n (%)
same,Any AE,[2],22 (100) n (%)
same,Any AE resulting in dose modification/interruption,[2],12 (55) n (%)
same,Any AE resulting in treatment discontinuation,[2],6 (27) n (%)
same,Any SAE,[2],10 (45) n (%)
same,Any grade ≥3 AE,[2],14 (64) n (%)
same,Any treatment-related AE,[2],21 (95) n (%)
same,Any treatment-related SAE,[2],4 (18) n (%)
same,Any treatment-related grade ≥3 AE,[2],8 (36) n (%)
same,"Asthenia, treatment-related AE",[2],9 (41) n (%)
same,"Asthenia, treatment-related grade ≥3 AE",[2],3 (14) n (%)
same,"Blood creatinine increased, treatment-related AE",[2],0 (0) n (%)
same,"Decreased appetite, treatment-related AE",[2],7 (32) n (%)
same,"Dehydration, treatment-related AE",[2],0 (0) n (%)
same,"Dehydration, treatment-related grade ≥3 AE",[2],0 (0) n (%)
same,"Diarrhoea, treatment-related AE",[2],8 (36) n (%)
same,"Diarrhoea, treatment-related grade ≥3 AE",[2],0 (0) n (%)
same,"Dry mouth, treatment-related AE",[2],2 (9) n (%)
same,"Dysgeusia, treatment-related AE",[2],4 (18) n (%)
same,"Dyspepsia, treatment-related AE",[2],0 (0) n (%)
same,"Fatigue, treatment-related AE",[2],7 (32) n (%)

# From PMC7686313, “Phase 1 study of mTORC1/2 inhibitor sapanisertib (TAK-228) in advanced solid tumours, with an expansion phase in renal, endometrial or bladder cancer” (British Journal of Cancer, 2020)
